Reference: US8048825B2, “Haloalkylsulfonanilide derivatives or salt thereof, herbicide comprising the derivatives as active ingredient, and use of the herbicide” (Nihon Nohyaku Co., Ltd., priority 2006, dated 2011)

Assays:
Format in all cases: in vivo
Scirpus juncoides [1] = assay: Herbicidal efficacy on paddy field weeds of pre-emergence stage (Pre), Test Example 1; details: 1000 g/ha as active ingredient, examined after 21 days
Method in brief: (§1)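 Pre-emergence paddy test: 1000 g/ha active ingredient, formulated and water-diluted, dropped onto 5 cm floodwater one day after sowing both weeds in clay loam. After 21 days in greenhouse, inhibition relative to untreated control rated on 0 (0%) to 5 (100%) scale.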

Lindernia procumbens [2] = assay: as above; details: 1000 g/ha as active ingredient, examined after 21 days
Method in brief: as §1

Scirpus juncoides [3] = assay: Herbicidal effect on paddy field weeds of post-emergence stage (Post), Test Example 2; details: one-leaf stage, 1000 g/ha as active ingredient, examined after 21 days
Method in brief: (§2)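 Post-emergence paddy test: formulated compound added to 5 cm standing water at 1000 g/ha a.i. when weeds reached one-leaf stage in clay loam pots in greenhouse. Growth inhibition rated 21 days later versus untreated control on a 0 (0%) to 5 (100%) scale.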

Echinochloa crus-galli = assay: as above; details: one-leaf stage, 1000 g/ha as active ingredient, examined after 21 days
Method in brief: as §2

Lindernia procumbens [4] = assay: as above; details: one-leaf stage, 1000 g/ha as active ingredient, examined after 21 days
Method in brief: as §2

Row | Compound | Scirpus juncoides pre (herbicidal effect) (Scirpus juncoides [1]) | Lindernia procumbens pre (herbicidal effect) (Lindernia procumbens [2]) | Scirpus juncoides post (herbicidal effect) (Scirpus juncoides [3]) | Echinochloa crus-galli post (herbicidal effect) (Echinochloa crus-galli) | Lindernia procumbens post (herbicidal effect) (Lindernia procumbens [4])
1 | CC(C)COC(=O)N(c1ccccc1CN1CC(C)(C)COC1=S)S(=O)(=O)C(F)(F)F [Compound 1-39] | 4 (90%-99% herbicidal effect, phytotoxicity) | 4 (90%-99% herbicidal effect, phytotoxicity) | 4 (90%-99% herbicidal effect, phytotoxicity) | 4 (90%-99% herbicidal effect, phytotoxicity) | 4 (90%-99% herbicidal effect, phytotoxicity)
2 | CC1(C)CCN(Cc2ccccc2NS(=O)(=O)C(F)(F)F)C(=O)O1 [Compound 1-45] | 4 (90%-99% herbicidal effect, phytotoxicity) | 4 (90%-99% herbicidal effect, phytotoxicity) | 4 (90%-99% herbicidal effect, phytotoxicity) | 4 (90%-99% herbicidal effect, phytotoxicity) | 4 (90%-99% herbicidal effect, phytotoxicity)
3 | CCOC(=O)N(c1ccccc1CN1CCC(C)(C)OC1=O)S(=O)(=O)C(F)(F)F [Compound 1-47] | 4 (90%-99% herbicidal effect, phytotoxicity) | 4 (90%-99% herbicidal effect, phytotoxicity) | 4 (90%-99% herbicidal effect, phytotoxicity) | 4 (90%-99% herbicidal effect, phytotoxicity) | 4 (90%-99% herbicidal effect, phytotoxicity)
4 | CC(C)COC(=O)N(c1ccccc1CN1CCC(C)(C)OC1=O)S(=O)(=O)C(F)(F)F [Compound 1-50] | 4 (90%-99% herbicidal effect, phytotoxicity) | 4 (90%-99% herbicidal effect, phytotoxicity) | 4 (90%-99% herbicidal effect, phytotoxicity) | 4 (90%-99% herbicidal effect, phytotoxicity) | 4 (90%-99% herbicidal effect, phytotoxicity)
5 | CC(C)(C)COC(=O)N(c1ccccc1CN1CCC(C)(C)OC1=O)S(=O)(=O)C(F)(F)F [Compound 1-51] | 4 (90%-99% herbicidal effect, phytotoxicity) | 4 (90%-99% herbicidal effect, phytotoxicity) | 4 (90%-99% herbicidal effect, phytotoxicity) | 4 (90%-99% herbicidal effect, phytotoxicity) | 4 (90%-99% herbicidal effect, phytotoxicity)
6 | CCCCCOC(=O)N(c1ccccc1CN1CCC(C)(C)OC1=O)S(=O)(=O)C(F)(F)F [Compound 1-52] | 4 (90%-99% herbicidal effect, phytotoxicity) | 4 (90%-99% herbicidal effect, phytotoxicity) | 4 (90%-99% herbicidal effect, phytotoxicity) | 4 (90%-99% herbicidal effect, phytotoxicity) | 4 (90%-99% herbicidal effect, phytotoxicity)
7 | COCN(c1ccccc1CN1CCC(C)(C)OC1=O)S(=O)(=O)C(F)(F)F [Compound 1-55] | 4 (90%-99% herbicidal effect, phytotoxicity) | 4 (90%-99% herbicidal effect, phytotoxicity) | 4 (90%-99% herbicidal effect, phytotoxicity) | 4 (90%-99% herbicidal effect, phytotoxicity) | 4 (90%-99% herbicidal effect, phytotoxicity)
8 | CC1(C)CCN(Cc2ccccc2NS(=O)(=O)C(F)(F)F)C(=S)O1 [Compound 1-58] | 4 (90%-99% herbicidal effect, phytotoxicity) | 4 (90%-99% herbicidal effect, phytotoxicity) | 4 (90%-99% herbicidal effect, phytotoxicity) | 4 (90%-99% herbicidal effect, phytotoxicity) | 4 (90%-99% herbicidal effect, phytotoxicity)
9 | CC(C)COC(=O)N(c1ccccc1CN1CCC(C)(C)OC1=S)S(=O)(=O)C(F)(F)F [Compound 1-63] | 4 (90%-99% herbicidal effect, phytotoxicity) | 4 (90%-99% herbicidal effect, phytotoxicity) | 4 (90%-99% herbicidal effect, phytotoxicity) | 4 (90%-99% herbicidal effect, phytotoxicity) | 4 (90%-99% herbicidal effect, phytotoxicity)
10 | CC(C)(C)COC(=O)N(c1ccccc1CN1CCC(C)(C)OC1=S)S(=O)(=O)C(F)(F)F [Compound 1-64] | 4 (90%-99% herbicidal effect, phytotoxicity) | 4 (90%-99% herbicidal effect, phytotoxicity) | 4 (90%-99% herbicidal effect, phytotoxicity) | 4 (90%-99% herbicidal effect, phytotoxicity) | 4 (90%-99% herbicidal effect, phytotoxicity)
11 | CCC1(C)CCN(Cc2ccccc2NS(=O)(=O)C(F)(F)F)C(=O)O1 (stereo not shown) [Compound 1-69] | 4 (90%-99% herbicidal effect, phytotoxicity) | 4 (90%-99% herbicidal effect, phytotoxicity) | 4 (90%-99% herbicidal effect, phytotoxicity) | 4 (90%-99% herbicidal effect, phytotoxicity) | 4 (90%-99% herbicidal effect, phytotoxicity)
12 | CCOC(=O)N(c1ccccc1CN1CCC(C)(CC)OC1=O)S(=O)(=O)C(F)(F)F (stereo not shown) [Compound 1-71] | 4 (90%-99% herbicidal effect, phytotoxicity) | 4 (90%-99% herbicidal effect, phytotoxicity) | 4 (90%-99% herbicidal effect, phytotoxicity) | 4 (90%-99% herbicidal effect, phytotoxicity) | 4 (90%-99% herbicidal effect, phytotoxicity)
13 | CCC1(C)CCN(Cc2ccccc2N(C(=O)OCC(C)C)S(=O)(=O)C(F)(F)F)C(=O)O1 (stereo not shown) [Compound 1-74] | 4 (90%-99% herbicidal effect, phytotoxicity) | 4 (90%-99% herbicidal effect, phytotoxicity) | 4 (90%-99% herbicidal effect, phytotoxicity) | 4 (90%-99% herbicidal effect, phytotoxicity) | 4 (90%-99% herbicidal effect, phytotoxicity)
14 | CCC1(C)CCN(Cc2ccccc2N(C(=O)OCC(C)(C)C)S(=O)(=O)C(F)(F)F)C(=O)O1 (stereo not shown) [Compound 1-75] | 4 (90%-99% herbicidal effect, phytotoxicity) | 4 (90%-99% herbicidal effect, phytotoxicity) | 4 (90%-99% herbicidal effect, phytotoxicity) | 4 (90%-99% herbicidal effect, phytotoxicity) | 4 (90%-99% herbicidal effect, phytotoxicity)
15 | COC(=O)N(c1ccccc1CN1CCC(C)(C(F)(F)F)OC1=O)S(=O)(=O)C(F)(F)F (stereo not shown) [Compound 1-81] | 4 (90%-99% herbicidal effect, phytotoxicity) | 5 (100% herbicidal effect, phytotoxicity) | 4 (90%-99% herbicidal effect, phytotoxicity) | 4 (90%-99% herbicidal effect, phytotoxicity) | 5 (100% herbicidal effect, phytotoxicity)
16 | CCOC(=O)N(c1ccccc1CN1CCC(C)(C(F)(F)F)OC1=O)S(=O)(=O)C(F)(F)F (stereo not shown) [Compound 1-82] | 5 (100% herbicidal effect, phytotoxicity) | 5 (100% herbicidal effect, phytotoxicity) | 4 (90%-99% herbicidal effect, phytotoxicity) | 4 (90%-99% herbicidal effect, phytotoxicity) | 5 (100% herbicidal effect, phytotoxicity)
17 | CC(C)(C)COC(=O)N(c1ccccc1CN1CCC(C)(C(F)(F)F)OC1=O)S(=O)(=O)C(F)(F)F (stereo not shown) [Compound 1-86] | 4 (90%-99% herbicidal effect, phytotoxicity) | 4 (90%-99% herbicidal effect, phytotoxicity) | 4 (90%-99% herbicidal effect, phytotoxicity) | 4 (90%-99% herbicidal effect, phytotoxicity) | 4 (90%-99% herbicidal effect, phytotoxicity)
